# Like-named read-outs stand apart in the source and are kept apart here.
# Tests used:
# [1] = test system: reuptake of dopamine; test: Reuptake of dopamine in vitro, crude synaptosomal preparation; format: biochemical, rat
# Description: (§1) Influence on the reuptake of monoamines "in vitro" was also studied. The effect of the compounds on the reuptake of 5-HT noradrenaline and dopamine was studied using Wistar male rats (350±2.5 g). They were kept under controlled light and temperature conditions and fed "ad libitum" until killed. The animals were killed by decapitation and brains were frozen and stored at -20° C. prior to analysis. Brains were dissected on an ice-filled petri dish. The cortices for 5-HT and noradrenaline assay and striatum (including caudate nucleus, putamen and globus pallidus) for dopamine assay were immediately weighed and homogenized. […] All drugs used in the study were dissolved in the incubation medium in a concentration range 10^-4 to 10^-8 M and were preincubated with the crude synaptosomal preparation obtained from the treated brains, for 5 min. at 37° C. or 0° C. before the addition of the labelled substrate.
# [2] = test system: brain, duodenum and liver MAO B; test: In vivo inhibition of MAO B of different tissues after chronic treatment; set-up: species or system rat
# Description: (§2) 4. "In vivo" inhibition of MAO A and B of different tissues after chronic treatment.
# (§3) In order to evaluate the effect of compounds in a chronic treatment, the inhibitory activity on brain, duodenum and liver MAO A and B has been studied "in vivo". Wistar male rats were treated at two dose levels, 0.1 and 0.25 mg/kg i.p. for 15 and 21 days. Control rats received similar amounts of saline solution.
# [3] = Antagonism of tetrabenazine effects (ptosis and catalepsy); format: in vivo; conditions: ptosis and catalepsy at 60 and 120 minutes after administration; read-out: ED50, antagonism of effects induced by tetrabenazine
# Source text: (§4) The action mechanism was studied in acute and chronic treatments on the interaction response with clonidine, salbutamol (Richard, J. Intern. J. Neuroscience, 9:17-19, 1979) and tetrabenazine (Pletscher, A.: An. N.Y. Aca. Sci. 80:1039-1045, 1959), and the response to the potentiation with L-dopa, L-tryptophan, tryptamine (Jalfre, M. et al., Arch. Int. Pharmacodyn, 159:194-221, 1982) and β-phenylethylamine (Ortmann, et al, Psychopharmacol. 84:22-27, 1984).
# [4] = test system: rat cerebral MAO A and B; test: MAO inhibitory activity at the biochemical level (reversibility and selectivity)
# Source text: To determine MAO inhibitory activity at the biochemical level the following tests are used:
# 1. "In vitro inhibition" of rat cerebral MAO A and B giving I50 values for the two forms of the enzyme. Male Wistar rats (200 g) were used. Brains were obtained by decapitation and were homogenized. As substrates of the enzymes ^14 C-5-hydroxytryptamine oxalate 54 mCi/mmol and ^14 C-β-phenylethylamine were used. The residual enzymatic activities were referred to the activities in absence of MAO inhibitor (100%).
# 2. "Ex vivo inhibition" of rat cerebral MAO A and B after single dosing.
# This gives the degree of inhibition in vivo of both forms of the enzyme and variation of this inhibition with time after treatment with a single dose. The compounds were administered intraperitoneally to male Wistar rats (175 g.) at a dose of 5 mg/kg in 1 ml/kg (H2 O). Animals were sacrificed by decapitation 24 h. and 7 days after treatment and brains were removed and homogenized. Enzymatic activities determined in treated animals, were compared with the activities in control animals (100%).
# 3. "Ex vivo" inhibition of rat cerebral MAO A and B after repeated dosing.
# Male Wistar rats (175 g) were used.
# The compounds were administered once daily intraperitonally for 7 days at a dose of 0.5 and 1 mg/kg in 1 ml/kg […]. […]
# [5] = Interaction with clonidine-induced hypoactivity; format: in vivo
# Source text: as §4
# [6] = Behavioural Despair (Porsolt's test); format: in vivo
# Description: The pharmacological profile was carried out assessing the antidepressant activity with the following tests:
# Behavioural Despair (Porsolt et al. Arch. Int. Pharmacodyn; 229:327-336, 1977),
# [7] = test system: reuptake of 5-HT; test: Reuptake of 5-HT in vitro, crude synaptosomal preparation; format: biochemical, rat
# Description: as §1
# [8] = test system: brain, duodenum and liver MAO A; test: In vivo inhibition of MAO A of different tissues after chronic treatment; set-up: species or system rat; conditions: cerebral vs intestinal or hepatic
# Description: as §2, §3
# [9] = test system: α-adrenergic receptors; test: Effects of chronic treatment on α2 receptors; format: in vivo; conditions: chronic administration in the rat
# Description: Effects of chronic treatment on α2 -, β- and 5-HT2 receptors. The test compounds, at a dose of 10 mg/kg/day i.p., were administered for 21 days to Wistar male rats (250±2.4 g). After treatment the animals were killed, brains were dissected and cortices were scraped from the dorsal surface of the […]. ^3 H UK 14304, ^3 H Dihydroalprenalol and ^3 H Ketanserin were used as ligands in the binding studies.
smiles,measurement,setting,value
"C#CCN(C)Cc1cc2cc(OC)ccc2n1C [(l), N-methyl-N-propargyl-2-(1-methyl-5-methoxy-indolyl)methylamine]",Inhibition of the reuptake of dopamine,[1],very weak inhibitor
same,Potency as inhibitor of dopamine reuptake relative to amitryptiline,[1],similar
same,Potency as inhibitor of dopamine reuptake relative to imipramine,[1],ten fold
same,Activity on hepatic MAO B,[2]; hepatic,very low activity
same,Effect on intestinal MAO B,[2]; intestinal,without any effect
same,ED50,[3],< 6 mg/kg
same,"Type of MAO inhibition (reversibility, selectivity)",[4],irreversible and selective inhibitor of MAO A
same,"Hypoactivity by clonidine, acute treatment",[5]; acute treatment,not modifying it
same,"Hypoactivity by clonidine, chronic treatment",[5]; chronic treatment (5 days),antagonized
same,minimal effective dose,"[6]; acute treatment, read-out: Porsolt's test MED, acute",50 mg/kg
same,minimal effective dose,"[6]; chronic treatment, read-out: Porsolt's test MED, chronic",20 mg/kg
same,Persistence of activity in Porsolt's test,[6]; in vivo,at least 24 hours
same,Inhibition of the reuptake of 5-HT,[7],potent inhibitor
same,Potency as inhibitor of 5-HT reuptake relative to chlorimipramine or imipramine,[7],much higher
same,"MAO A inhibitory effect, comparison of tissues",[8],higher on cerebral MAO A than on intestinal or hepatic MAO A
same,Modifications on α-adrenergic receptors,[9],not statistically significant

# Source: US5130327A, “Indole derivatives” (Consejo Superior de Investigaciones Cientificas, priority 1989, dated 1992)
